From patent US20140220000A1, “MHC ENGAGEMENT AND CLIP MODULATION FOR THE TREATMENT OF DISEASE” (Scott & White Healthcare, priority 2011, published 2014)

Key:
MCF7 cells = experiment: Viability counts of MCF7 cells after B-estradiol treatment (Example 5); type: cell-based, human; conditions: 10 nM B-estradiol, about 19 hours after treatment
Experimental: (§1) MCF7 (ATCC (cat# HTB-22)) and MCF7-ADR were grown in 10% FBS RPMI (Gibco RPMI 1640 media cat #21870076) supplemented with Fetal Bovine Serum, L-Glutamine, […], Hepes Buffer, Sodium Pyruvate, and Gentamicin). 1.07*10^6MCF7 cells were plated per well in 2 wells. […] ADR cells were plated per well in 2 wells. The cells were treated with B-estradiol from Sigma (Cat# E2758-250 mg, Lot#110M0138V). In order to prepare a 10 nM final concentration 27.238 mg of B-estradiol was weighed under the hood with a sterile weigh boat and spatula and dissolved in 1 mL of DMSO to make a 0.1M stock, which was then diluted twice: • 1:1000 dilution (1 ul of the 0.1M stock to 999 ul PBS) • 1:100 dilution (10 ul of the 1:000 dilution to 990 ul PBS) 20 ul of the 1:100 diluted solution was added to a final volume of 2 mL per treatment well. The MCF7 and MCF7 ADR were harvested about 19 hours after treatment. The cells were counted and viability is shown below.

MCF7 ADR cells = experiment: Viability counts of MCF7 ADR cells after B-estradiol treatment (Example 5); type: cell-based, human; conditions: 10 nM B-estradiol, about 19 hours after treatment
Experimental: as §1

C57BL/6 splenocytes = experiment: Viability counts of C57BL/6 splenocytes after CpG, MKR.4 and Anti MHC Class II treatment (Example 2); type: cell-based, mouse; conditions: CpG 5 ug/mL, MKR.4 5 ug/mL, Anti MHC Class II 5 ug/mL, 24 hours after antibody
Experimental: C57BL/6 were Prepared as Follows: • A spleen from a C57BL/6 mouse was placed in a cell strainer in a petri dish with 6 mL of PBS • The spleen was mashed to produce a cell suspension • The PBS splenocyte cell suspension was transferred into a labeled 15 mL conical tube and centrifuged for 5 minutes at 1000 rpm • The pellet was resuspended in 1 mL of PBS • Geys was prepared to lyse the red blood cells • 7 mL of DI H20; • 0.5 mL of Geys B • 0.5 mL of Geys C • weighed out […] of NH4Cl • Mixed the […] of NH4Cl with 2 mL of Geys A • Transferred the dissolved solution to a 15 mL conical tube with the H20, Geys B, and Geys C • 3 mL of the Geys solution was added to the 1 mL of PBS cell suspension, mixed well and placed on ice for 1 minute (frequently inverted solution in tube on ice during the 1 minute) • The mixture was centrifuged for 5 minutes at 1000 rpm, washed with 5 mL of PBS, centrifuged for 5 minutes at 1000 rpm and resuspended in 10 mL of PBS • A hemacytometer count was performed: 99.0*10^6 cells total (9.9*10^6 cells/mL) plate 4*10^6 cells per well*8 wells=32 million; 32*10^6/9.9*10^6=3.23 mL of this suspension needed to obtain 32*10^6 cells • Centrifuged 3.23 mL of the suspension for 5 minutes at 1000 rpm and resuspended the pellet in 8 mL of 5% FBS RPMI • 1 mL of suspension was added to each well (12-well plate) • Added another 2 mL of 5% FBS RPMI to each well to bring the final volume up to 3 mL
(§2) 8 wells were set up for the experiment for each cell type (CRL-5822 and C57BL/6) with no treatment, with CpG, MKR.4 peptide, with MKR.4 peptide+CpG and with or without addition of purified Anti Class-II (HLA-DR,DP,DQ) treatment in the amounts listed below.
CpG: (x) (1 mg/mL stock)=(5 ug/mL) (3 mL) x=15 ul
MKR.4: (x) (5 mg/mL stock)=(5 ug/mL) (3 mL) x=3 ul
Anti MHC Class II: Treat at 5 ug/mL; Stock is at 1 mg/mL; (x) (1 mg/mL)=(5 ug/mL) (3 mL); x=15 ul/well
(§3) CpG was administered to activate the cells and induce CLIP expression. MKR.4 was added to select wells 24 hours after cell activation. The cells were incubated with MKR.4 for 2 hours. Then fresh media with or without Anti MHC Class II was added. 24 hours after Anti MHC Class II was added to the wells viability counts were performed.

H69 cells = experiment: Hemacytometer viability counts of H69 cells after CpG, MKR.4 and anti-class II treatment (Example 3); type: cell-based, human; conditions: 24 hours after anti-class II
Experimental: Based on cell counts 500,000 H69 cells per well were set up in a 6 well plate-4.0*10^6/2.95*10^6=1.36 mL. The 1.36 mL was added to a new 15 mL conical tube and centrifuged for 5 minutes at 1000 rpm. The pellet was resuspended in 8 mL of H69 media and 1 mL of cell suspension was added to each well. 2 mL of H69 media was added to each well to bring the total volume/well up to 3 mL and the plates were placed in an incubator.
(§4) CpG was administered to activate the cells and induce CLIP expression. 15 uL of 1 mg/mL CpG was added into each CpG treated well. MKR.4 was added to select wells 24 hours after cell activation. The cells were incubated with 3 uL of 5 mg/mL stock MKR.4 in DMSO for 2 hours. Then fresh media with or without Anti MHC Class II was added (5 ul/well of stock at 1 mg/mL). 24 hours after Anti MHC Class II was added to the wells viability counts were performed.

WITT cells = experiment: Hemacytometer viability counts of WITT cells after CpG, MKR.4 and anti-class II treatment (Example 3); type: cell-based, human; conditions: 24 hours after anti-class II
Experimental: 0.59*10^6 cells/mL*5 mL=[…] of WITT cells total were used. The cells were centrifuged at 1000 rpm for 5 minutes and the pellet was resuspended in 9 mL of WITT media. 1 mL of this cell suspension was added to each of […] and a culture flask. Another 2 mL of WITT media was added to each well in the 12 well plate to bring the total volume up to 3 mL. Another 9 mL was added to the T-25 culture flask to bring that total volume up to 10 mL. The plate and flask were placed in the incubator to allow adherence overnight.
as §4

[1] = test system: B cells from CLIP−/− (Invariant Chain deficient) mice; experiment: Cell death of B cells isolated from CLIP-/- mice (Example 6, FIG. 6B); type: cell-based, mouse; conditions: MKR.4 5 μg/mL, anti-MHCII 2.5 μg/mL, 24 hours
Experimental: (§5) B cells were isolated from the spleens 12 week old male C57B/6 or CLIP−/− (Invariant Chain deficient) mice (Jackson Labs) using the Miltenyi Biotech B cell isolation kit according to the manufacturer's directions. Cells were incubated with or without CpG-ODN (1 mg/mL SEQ ID NO 9: 5′-[…]-3′, purchased from Invivogen) for 48 hours followed by treatment with 5 μg/mL MKR.4 (5 mg/mL, SEQ ID NO 8: ANS GFR IMA VLA SGG QY). Cells were incubated with MKR.4 for 1 hour and then washed followed by treatment with 2.5 μg/mL anti-MHCII (IA/IE, BD Bioscience). 24 hours after anti-MHCII treatment cells were analyzed for cell death using Acridine Organge/propidium iodide staining measured on the Cellometer (Nexcelom), propidium iodide and foreword Vs. side scatter staining measured on a BD FACS Canto II flow cytometer (BD Bioscience). Data was analyzed using FlowJo software (TreeStar).

CRL-5822 cells [2] = experiment: Viability counts of CRL-5822 cells after CpG, MKR.4 and Anti MHC Class II treatment (Example 2); type: cell-based; conditions: CpG 1 ug/mL, MKR.4 2.5 ug/mL, Anti MHC Class II 5 ug/mL, 24 hours after antibody
Experimental: CRL-5822 were Prepared as Follows: • Removed the media from a flask of CRL-5822 using a sterile glass pipet and vacuum • Added 1.5 mL of accutase to the flask and placed in incubator for 20 minutes • Washed with 3 mL of PBS • Transferred all to a sterile 15 mL conical tube • Centrifuged for 5′ @ 1000 rpm • Removed supernatant with sterile glass pipet and vacuum • Resuspended in 3 mL of PBS • Performed a hemacytometer count indicating: 1.14*10^6 cells total of CRL-5822 cells • 1.14*10^6/8 wells+2 wells for culture maintenance=10 wells • 1.14*10^6/10 wells=[…] cells per well • Centrifuged the 3 mL of cell suspension for 5′ at 1000 rpm • Resuspended pellet in 10 mL of 10% FBS RPMI • 1 mL of this was added to 2 wells in a 12-well plate added 1 mL of fresh 10% FBS RPMI to each well to bring the total volume up to 2 mL.
as §2
CRL-5822 • CpG:(x) (1 mg/mL stock)=(1 ug/mL) (2 mL)x=2 ul • MKR.4: (x) (5 mg/mL stock)=(2.5 ug/mL) (2 mL) x=1 ul • Anti MHC Class II: Treat at 5 ug/mL; Stock is at 1 mg/mL; (x) (1 mg/mL)=(5 ug/mL) (2 mL); x=10 μl/well
as §3

CRL-5822 cells [3] = experiment: Viability counts of CRL-5822 cells after LPS, MKR.4 and Anti MHC Class II treatment (Example 1); type: cell-based; conditions: LPS 1 ug/mL, MKR.4 2.5 ug/mL, Anti MHC Class II 5 ug/mL, 24 hours after antibody
Experimental: The media was removed from a flask of CRL-5822 using a sterile glass pipet and vacuum and 1.5 mL of accutase was added to the flask and placed in incubator for 20 minutes. The cells were washed with 3 mL of PBS and transferred to a sterile 15 mL conical tube and centrifuged for 5 minutes @ 1000 rpm. The supernatant was removed with sterile glass pipet and vacuum and the pellet resuspended in 5 mL of PBS. A cell count was performed using the TC-10 automated counter and 10 ul of cell suspension+10 ul of trypan blue was loaded into disposable counting slide and put in the TC-10. The following count was made: Live: 3.54*10^4 cells/mL*5 mL=177,000 cells total & 177,000/9 wells (8 wells in experiment+1 to maintain culture)=19,666 cells/well (flask).
The 5 mL of cell suspension was centrifuged for 5′ at 1000 rpm, the pellet was resuspended in 9 mL of 10% FBS RPMI. 1 mL of the cell suspension was added to a T-25 flask that had 4 mL of media in it and placed in the incubator. After culture 1 mL of the cell suspension was added to each well (8 wells in a labeled 24 well plate). A fresh vial of MKR.4 was resuspended in sterile DMSO. 7 mg of peptide was used to make a 5 mg/mL stock (7 mg/mL=5 mg/mL=1.4 mL of DMSO). The peptide was added into 1.4 mL of DMSO, under the hood to maintain sterility. Once all of the peptide was dissolved, 200 ul aliquots were made. […]

B cells from C57B/6 mice = experiment: Cell death of B cells isolated from C57B/6 mice (Example 6, FIG. 6A); type: cell-based, mouse; conditions: C57B/6 B cells stimulated with CpG 48 hours, MKR.4 5 μg/mL 1 hour, anti-MHCII 2.5 μg/mL, 24 hours
Experimental: as §5

| Compound | Dead (MCF7 cells) | Live (MCF7 cells) | Dead (MCF7 ADR cells) | Live (MCF7 ADR cells) | Total Dead (C57BL/6 splenocytes) | Total Live (C57BL/6 splenocytes) | Dead (H69 cells) | Live (H69 cells) | Dead (WITT cells) | Live (WITT cells) | percent change in cell death [1] | Total Dead (CRL-5822 cells [2]) | Total Live (CRL-5822 cells [2]) | Total Dead (CRL-5822 cells [3]) | Total Live (CRL-5822 cells [3]) | percent change in cell death (B cells from C57B/6 mice) |
| --- | --- | --- | --- | --- | --- | --- | --- | --- | --- | --- | --- | --- | --- | --- | --- | --- |
| C[C@]12CC[C@@H]3c4ccc(O)cc4CC[C@H]3[C@@H]1CC[C@@H]2O [B-Estradiol, B-estradiol] | 0.11*10^6 | 0.50*10^6 | 0.07*10^6 | 0.47*10^6 | – | – | – | – | – | – | – | – | – | – | – | – |
| ANS GFR IMA VLA SGG QY (ANSGFRIMAVLASGGQY) [MKR.4] | – | – | – | – | Total Dead: 0.10 *10^6 | Total Live: 0.44 * 10^6 | Dead: 0.28*10^6 | Live: 1.46*10^6 | 0.038*10^6 | 0.93*10^6 | no effect on the cell death caused by the MHC class II antibody | Total Dead: 0.08 *10^6 | Total Live: 0.24 * 10^6 | Total Dead: 0.07 *10^6 | Total Live: 0.32 * 10^6 | restores the increase in cell death |
| 5′-tcgtcgttttgtcgttttgtcgtt-3′ [CpG] | – | – | – | – | Total Dead: 0.08 *10^6 | Total Live: 1.25 * 10^6 | Dead: 0.40*10^6 | Live: 1.65*10^6 | 0.13*10^6 | 0.94*10^6 | – | Total Dead: 0.07 *10^6 | Total Live: 0.35 * 10^6 | – | – | – |
